Reference: US4370331A, “L-Glaucine containing composition for cough relief” (Karl O. Helm Aktiengesellschaft, priority 1977, dated 1983)
Values joined by “and” are separate entries in the source; they are usually repeats but may differ in a detail not shown here. Identical values can stand only once. Counter-ions that a name gives are not always drawn. Like-named read-outs stand apart in the source and are kept apart here.

Key:
[1] = system: isolated guinea pig intestine (spasms induced by carbachol); assay: Suppression of spasms induced by carbachol in isolated guinea pig intestine; conditions: Cavia porcellus, read-out: concentration effective against carbachol induced spasms
Description: In further tests it was investigated in what concentrations the active substances being compared suppress spasms induced in isolated guinea pig intestine by carbachol or histamine. […] On the other hand d,l-glaucine was effective against histamine at molar concentrations of only 4×10^-8 to 4×10^-6 and against carbachol at molar concentrations of only 4×10^-7.

mice = assay: Toxicity (LD50) in mice by the Wilcox method, Comparative test 7; assay type: in vivo
Description: (§1) The toxicity thresholds of codeine phosphate, of d-glaucine hydrobromide and of d,l-glaucine hydrobromide were determined in mice by the Wilcox method. […] The toxicities of codeine phosphate and d,l-glaucine hydrobromide are about equal.

anti-cough effectiveness = assay: Oral anti-cough effectiveness in guinea pigs, 5% acid aerosol, Comparative test 8; assay type: in vivo; conditions: 1 h before 10 min exposure to 5% acid aerosol, last 5 minutes measured
intestinal motility = assay: Intestinal motility / evacuation action of stomach-intestinal tract of mice (carbon suspension), Comparative test 2; assay type: in vivo; conditions: s.c.; for Distance travelled average % (of intestine length): 2 h, control 74.3%, * = significantly different from control (p < 0.05)
Description: One of the most unpleasant side effects of anti-cough medicine containing codeine is constipation and the occurrence of intestinal spasms. A model test for determining the effects of anti-cough active substances on intestinal motility and on the evacuation action of the stomach-intestinaltract of mice was therefore made. After subcutaneous injection of the active substance, each animal was given, through a throat probe, a 10% suspension of carbon in a 5% aqueous slurry of gum arabic. Two hours later the intestine was sectioned and the distance of stomach coecum measured, and also the distance travelled by the carbon, which was expressed as percent of intestine length.
The effects of codeine phosphate, of d-glaucine hydrobromide and of l-glaucine hydrobromide on intestinal motility were determined at different doses. For each dose the average value was calculated for a sufficient number of animals.

cough pulses [2] = assay: Oral citric acid aerosol cough test in guinea pigs, 1 h (equivalent effective doses), Comparative test 6; assay type: in vivo; conditions: for Cough pulses percent of control value: 20% citric acid aerosol 8 min
cough pulses [3] = assay: Oral citric acid aerosol cough test in guinea pigs, time course 1-24 h, Comparative test 6; assay type: in vivo; conditions: codeine phosphate 75, d,l-glaucine hydrobromide 150, hydrochloride 135, embonate 378 mg/kg
Description: In a further comparative test, 40 female guinea pigs with body weights between 230 and 500 g were divided into 4 groups and each animal was again subjected to the action of a 20% citric acid aerosol for 8 minutes. From the control values thus obtained the average control value for each group was calculated. Each animal of each group was then given, by means of a throat probe, either 75 mg/kg of codeine phosphate, or 135 mg/kg of d,l-glaucine hydrochloride, or 150 mg/kg of d,1-glaucine hydrobromide, or 378 mg/kg of d,l-glaucine embonate. These doses are the equimolar quantities, based on glaucine. After a period of 1, or 3, or 5, or 24 hours each animal was again subjected for 8 minutes to the action of the citric acid aerosol, and the number of cough pulses during this period was recorded. The values thus obtained were compared with the control values and the percent deviation of the average measured value for each group, from the average control value, was calculated.

cough pulses [4] = assay: Citric acid aerosol cough test in guinea pigs, subcutaneous, 30 min (method of Friebel and Reichle), Comparative test 1; assay type: in vivo; conditions: s.c.; for ED50: Cavia porcellus, sc, 0.5 h, 30 min after administering, 20% citric acid aerosol, 8 min
Description: In order to compare the anti-cough effectiveness of codeine phosphate with the effectiveness of the different isomers of glaucine hydrobromide, the testing method of Friebel and Reichle was used. 60 guinea pigs with weights between 200 and 300 g were divided up into ten groups of different sizes. Before administering the active substance, each animal was subjected, on the same day as the day of test with the active substance, for a period of 8 minutes to an aerosol of 20% citric acid, the animal being confined in a chamber at constant air pressure. During this control test the number of cough pulses was counted with the help of a pressure transmitter. From these measurements an average control value for each group was calculated. After this preliminary control test, there was given subcutaneously to each animal of each group a suspension of the active substance in 1% sodium carboxymethyl cellulose. After 30 minutes each animal was again exposed in the test chamber for 8 minutes to the aerosol of 20% citric acid and the number of cough pressure pulses recorded. The different active substances were administered in increasing doses ranging from 3 mg/kg to 100 mg/kg of body weight. Altogether eight different doses were given. The results were expressed as percent deviation from the average control value for the group on the same day, the deviation being entered in a diagram against the logarithm of the dose administered. From the resulting effectiveness curve, based on the logarithm of the dose, the coefficient of correlation and the ED50 were calculated for each active substance, by the regression analysis method of Downie and Heath (1965). The values obtained for codeine phosphate, for d-glaucine hydrobromide, for d,l-glaucine hydrobromide and for l-glaucine hydrobromide thirty minutes after administering the active substance are summarized in Table I.

[5] = system: isolated guinea pig intestines (contractions induced by electric voltages); assay: Suppression of electrically induced contractions in isolated guinea pig intestines, Comparative test 4; conditions: isolated guinea pig intestine; codeine: increased doses; d-glaucine: higher concentrations than 4×10^-5; d,l-glaucine: 4×10^-5 to 6×10^-5
[6] = Toxicity (LD50) in mice by the Wilcox method, Comparative test 7; assay type: in vivo; conditions: mouse, in vivo
Description: as §1

[7] = system: isolated guinea pig intestines (contractions induced by electric voltages); assay: Suppression of electrically induced contractions in isolated guinea pig intestines, Comparative test 4; design: electrically induced contractions (Table III): unit not given here
Description: In a further series of tests the effects of different doses of codeine phosphate in suppressing contractions induced in isolated guinea pig intestines by electric voltages were tested. For this purpose one electrode was immersed in the solution surrounding the intestinal preparation. The second electrode was connected to the preparation at the attachment point.

coughing centre = assay: Coughing reflex by electrical stimulation of upper laryngeal nerves of anaesthetized cats (method of Domenjoz), Comparative test 5; assay type: in vivo; conditions: intravenous, anaesthetized cats
Description: In a series of tests conducted by the method of Domenjoz, the effects of the different active substances on the coughing centre was examined by electrical stimulation of the upper laryngeal nerves of anaesthetized cats. Electrical stimulation of the nerve produces a coughing reflex and the intention is to reduce this by intravenous injection of the active substance. The minimal effective dose MED is determined by increasing the dose from 0.1 mg/kg of body weight up to 0.3 mg/kg, 1.0 mg/kg, 3.0 mg/kg and 6.0 mg/kg, until the dose is sufficient for completely suppressing the coughing reflex.
In these tests each animal was given, on the one hand, codeine and, on the other hand, at sufficient time intervals also glaucine, so that the ratio of the minimal effective doses of glaucine and codeine can be deduced.

COc1cc2c(cc1OC)-c1c(OC)c(OC)cc3c1C(C2)N(C)CC3 (racemic) [d,l-glaucine]
minimal effective concentration [1]: 0.4 µM
toxicity, comparison in words (mice): considerably less toxic than d-glaucine

COc1cc2c(cc1OC)-c1c(OC)c(OC)cc3c1[C@@H](C2)N(C)CC3 [1-glaucine-d-tartrate, l-glaucine-d-tartrate]
Oral ED50 (anti-cough effectiveness; 60 min): 6,8 mg/kg

COc1ccc2c3c1O[C@H]1[C@@H](O)C=C[C@H]4[C@@H](C2)N(C)CC[C@@]341 [codeine phosphate, reference compound]
Distance travelled average % (of intestine length) (intestinal motility; 3 mg/kg): 70.4%
Distance travelled average % (of intestine length) (intestinal motility; 10 mg/kg): 74.3%
Distance travelled average % (of intestine length) (intestinal motility; 30 mg/kg): 34.8%
Distance travelled average % (of intestine length) (intestinal motility; 100 mg/kg): 20.6%
Cough pulses percent of control value (cough pulses [2]; 50 mg/kg): 37%
Cough pulses percent of control value (cough pulses [2]; 100 mg/kg): 50%
dose having about the same effect (codeine phosphate vs d,l-glaucine hydrobromide) (cough pulses [2]; guinea pigs): ~75 mg per kg of body weight
Cough pulses during 8 minutes, percent of control value, after 1 h (cough pulses [3]; 1 h): 84%
Cough pulses during 8 minutes, percent of control value, after 3 h (cough pulses [3]; 3 h): 70%
Cough pulses during 8 minutes, percent of control value, after 5 h (cough pulses [3]; 5 h): 84%
Cough pulses during 8 minutes, percent of control value, after 24 h (cough pulses [3]; 24 h): 95%
ED50 (cough pulses [4]): 20.6 mg/kg
induced spontaneous activity, in words [5]: the spontaneous activity induced by the codeine phosphate itself increases the contractions
toxicity, comparison in words (mice): about equal
LD50 ([6]; po, peroral, read-out: LD50 peroral): 640 mg/kg
LD50 ([6]; sc, subcutaneous, read-out: LD50 subcutaneous): 230 mg/kg
inhibition at 10 µM ([7]; Cavia porcellus, molar concentration of about 10^-5, read-out: suppression of electrically induced contraction reflexes): ~50%
electrically induced contractions (Table III) ([7]; molar concentration 1 × 10^-5): 49
electrically induced contractions (Table III) ([7]; molar concentration 2 × 10^-5): 36 and 52
electrically induced contractions (Table III) ([7]; molar concentration 4 × 10^-5): 58
electrically induced contractions (Table III) ([7]; molar concentration 5 × 10^-6): 85 and 51
minimal effective dose (coughing centre; Felis catus, read-out: MED (minimal effective dose completely suppressing the coughing reflex)): 6 mg/kg
Duration of cough suppression (coughing centre; at MED): 18 to 54 min

COc1cc2c(cc1OC)-c1c(OC)c(OC)cc3c1[C@@H](C2)N(C)CC3 [l-glaucine hydrobromide]
ED50 (anti-cough effectiveness; Cavia porcellus, po, 1 h): 7.21 mg/kg
Distance travelled average % (of intestine length) (intestinal motility; 3 mg/kg): 74.3%
intestinal activity, in words (intestinal motility; 10 mg/kg): significant increase in intestinal activity
Distance travelled average % (of intestine length) (intestinal motility; 10 mg/kg): 94.3%
intestinal motility, in words (intestinal motility; 30 mg/kg and 100 mg/kg): considerably more than the corresponding values for d-glaucine hydrobromide and codeine phosphate
Distance travelled average % (of intestine length) (intestinal motility; 30 mg/kg): 85.4%
Distance travelled average % (of intestine length) (intestinal motility; 100 mg/kg): 51.8%
ED50 (cough pulses [4]): 31.2 mg/kg
ED50 value, comparison in words (cough pulses [4]; 30 min): considerably lower effective dose ED50 value compared to d-glaucine hydrobromide
suppression of electrically induced contraction reflexes, in words ([7]; 4×10^-5): more effectively suppressed, compared to what is obtained using d-glaucine hydrobomide
suppression of electrically induced contractions, in words ([7]; 8×10^-5): suppressed even more effectively
electrically induced contractions (Table III) ([7]; molar concentration 1 × 10^-5, hydrobromide): 71 and 74
electrically induced contractions (Table III) ([7]; molar concentration 2 × 10^-5, hydrobromide): 64 and 32
electrically induced contractions (Table III) ([7]; molar concentration 4 × 10^-5, hydrobromide): 24 and 23
electrically induced contractions (Table III) ([7]; molar concentration 8 × 10^-5): 7
